Patent US11912793B2, “Polypeptide and application thereof in bone repair” (SICHUAN UNIVERSITY, priority 2022, dated 2024)

Experiments:
[1] = tested on: calvarial defects; assay: Calvarial defect implantation of polypeptide-modified GelMA, H&E and Goldner's trichrome staining; type: in vivo, SD male rats; details: GelMA scaffold with peptide 0.1 mg/mL, 5 mm calvarial defect, 4 weeks post-implantation
Description: • 2.1 GelMA Preparation: gelatin was fully dissolved in phosphate-buffered saline (PBS) at 60° C. with a concentration of 10% (w/v). […] Double PBS was added to the mixture to stop the reaction. The solution was dialyzed against distilled water using 12-14 kDa dialysis tubing for 1 week. The obtained GelMA solution was frozen at −20° C. overnight and lyophilized for 72 h to get sponge GelMA. • 2.2 Polypeptide modification: 2 g lyophilized GelMA was dissolved in 10 mL PBS containing 0.1% (w/v) photoinitiator LAP at 60° C. Then, either a control peptide or GS18 was added to achieve a final concentration of 0.1 mg/mL. The above mixture was injected into the mold (20 μL/hole) and exposed to ultraviolet irradiation (6.9 W/cm^2, 360-489 nm) for 2 min at room temperature. Once solidified, the materials were carefully detached from the mold and placed on ice for use. • 2.3 Result verification: photographs were captured to depict the morphological characteristics of the polypeptide-modified GelMA after it was separated from the mold.
• 3.1 Sample preparation: the GelMA scaffold was utilized to encapsulate either GS18 or control peptide at a concentration of 0.1 mg/mL, resulting in a total volume of 0.02 cm^3. • 3.2 Animal model: 12-week-old SD male rats (about 320±20 g each) were used. Each group contained 3 rats. Rats were anesthetized with 2% pentobarbital via abdominal injection. The rats were positioned in the prone position. An electric razor was utilized to remove fur from the cranial region. Following this, the surgical sites were thoroughly cleansed with iodophor for disinfection. To maintain a sterile condition, disposable towels were carefully placed over the surgical regions. Starting from the nasal bone, a longitudinal skin incision of 1.5-2.0 cm was made along the midline of the top of the head. The subcutaneous tissue was gently separated with the handle of a surgical knife. The periosteum was meticulously incised along the sagittal suture of the cranium and subsequently separated to fully expose the parietal bone, occipital bone, and part of the frontal bone. Bilateral full-thickness circular calvarial defects (diameter=5 mm) were generated using a trephine. Sterilized materials were implanted into the defect sites. The experimental group was implanted with GS18-modified GelMA, While the control group was implanted with control peptide-modified GelMA. Finally, the skin was reset, sutured, and disinfected. • 3.3 Tissue slices: after 4 weeks, the rats were sacrificed. […] The paraffin tissue slices were heated at 65° C., dewaxed, hydrated with xylene and gradient ethanol, and stained with H&E and Goldner's trichrome staining for histological evaluation.

[2] = tested on: osteogenesis-oriented BMSCs (pre-osteoblasts); assay: In vitro osteogenic differentiation, Von kossa staining; type: cell-based, C57BL/6 male mice; details: 5 days OM pretreatment, then 14 days peptide-containing OM, compared with the control peptide
Description: • 1.1 Cell culture: primary bone mesenchymal stem cells (BMSCs) extracted from the long bones of 3-week-old C57BL/6 male mice were selected, cultured at 37° C. in a humidified atmosphere with 5% CO2, and inoculated into a 24-well plate with 30000 cells/well. α-MEM supplemented with 5% FBS, 1% penicillin-streptomycin, […], 10 mM β-glycerophosphate, and 50 μg/mL L-ascorbic acid was used as the osteogenic medium (OM) for osteogenic induction. • 1.2 Cell induction: BMSCs were pretreated with OM for 5 days to achieve a determined osteogenic precursor cell state, followed by ongoing induction with peptide-containing OM for another 14 days. The experimental group used OM added with GS18, and the control group used OM added with the control peptide. GS18 was synthesized using a solid-phase polypeptide synthesis and was purified by HPLC (purity=96.59%). The amino acid sequence of the control peptide was shown as SEQ ID NO: 2, i.e. CKPLRLSKEEHPLK. The control peptide also adopted a solid-phase polypeptide synthesis method and used HPLC to purify products (purity=96.15%). […] The integrated density of calcium nodes (IntDen) and the percent of the calcified area to the total area (Area %) from five random areas were measured by Fiji. **p<0.01.

[3] = tested on: Wnt/β-catenin pathway; assay: Immunofluorescence staining of active β-catenin and osteocalcin in calvarial defects; type: in vivo, SD male rats; details: 4 weeks after implantation
Description: • 3.1 Sample preparation: the GelMA scaffold was utilized to encapsulate either GS18 or control peptide at a concentration of 0.1 mg/mL, resulting in a total volume of 0.02 cm^3. • 3.2 Animal model: 12-week-old SD male rats (about 320±20 g each) were used. Each group contained 3 rats. Rats were anesthetized with 2% pentobarbital via abdominal injection. The rats were positioned in the prone position. An electric razor was utilized to remove fur from the cranial region. Following this, the surgical sites were thoroughly cleansed with iodophor for disinfection. To maintain a sterile condition, disposable towels were carefully placed over the surgical regions. Starting from the nasal bone, a longitudinal skin incision of 1.5-2.0 cm was made along the midline of the top of the head. The subcutaneous tissue was gently separated with the handle of a surgical knife. […]
• 4.1 Antigen repair: the paraffin slices prepared in Embodiment 3.3 were heated at 65° C., dewaxed, hydrated with xylene and gradient ethanol, and immersed in the antigen repair buffer at 100° C. for 40 min. […] Subsequently, the sections were washed with PBS three times for 15 min each time and sealed by the anti-fluorescence quencher. • 4.3 Result verification: images of immunofluorescence staining were acquired using a confocal laser scanning microscope (CLSM, FV3000, Olympus, Japan).

| Sequence | Goldner's trichrome staining: cellular growth / cell infiltration in the defect (FIG. 4) [1] | H&E staining: cellular growth / cell recruitment in the defect (FIG. 3) [1] | formation of calcium deposits of pre-osteoblasts (FIG. 1B) [2] | maturation of calcium deposits of pre-osteoblasts (FIG. 1C) [2] | expression of Ocn in the defect area (FIG. 5) [3] | expression of active β-Catenin in newly formed tissues of the calvarial defects (FIG. 5) ([3]; compared to non-peptide-modified GelMA) | H&E staining: fiber mineralization in the defect (FIG. 3) [1] |
| --- | --- | --- | --- | --- | --- | --- | --- |
| CKPLRLSKEEHPLK (The sequence is synthetized) [control peptide, control peptide made by solid-phase polypeptide synthesis, reference compound] | conspicuous paucity of cellular growth within the central region of the defect | noticeable lack of cellular growth in the central region of the defect | – | – | – | – | – |
| GPGGDKCRCVFHWVCCYVS (GPGGDKCRCVFHWCCYVS; The sequence is synthetized) [GS18] | – | capacity to attract and recruit cells into the scaffolds | significantly increased | significantly increased | robust and widespread | significantly enhanced | high degree of fiber mineralization |
